Reference: PMC2913396 (Molecular Systems Biology, 2010)
“Also recorded” adds a separate entry of the source.

What was measured:
Huh-7 cells = test: host proliferation counterscreen measuring cellular ATP levels; format: cell-based, human; settings: 48 h
[1] = system: HCV genotype 1b subgenomic replicon in Huh-luc/neo-ET cells; test: cHTS luciferase assay; format: cell-based, hepatitis C virus; settings: for effect on replicon replication (in words): single agent, 48 h luciferase
[2] = system: HCV replicon RNA in Huh-luc/neo-ET cells; test: replicon RNA copy number by quantitative RT-PCR; format: cell-based, hepatitis C virus; settings: 72 h, normalized to total RNA
HMGCR = HMGCR protein expression by western blot; format: cell-based, human; settings: Huh-7 cells, 16 h
[3] = ref Pyrah et al, 2001; Cenedella et al, 2004; cited from earlier work

| Structure (SMILES) | effect on host cell ATP levels (in words) (Huh-7 cells) | effect on replicon replication (in words) [1] | also measured |
| --- | --- | --- | --- |
| NCCCC(O)(P(=O)(O)O)P(=O)(O)O [Alendronate] | reduce host cell ATP levels |  |  |
| CCC(C)(C)c1ccc(CC(C)CN2C[C@@H](C)O[C@@H](C)C2)cc1 (stereo partly shown) [Amorolfine] |  | inhibited HCV replication with marginal impact on host cell ATP levels |  |
| CCN(CC)CCOc1ccc(C(=C(Cl)c2ccccc2)c2ccccc2)cc1 [Clomiphene] | reduce host cell ATP levels |  |  |
| CC(C)CCC[C@@H](C)[C@H]1CC(=O)C2=C3CC[C@H]4C[C@@H](O)CC[C@]4(C)[C@H]3CC[C@@]21C [Colestolone] |  | inhibited HCV replication with marginal impact on host cell ATP levels |  |
| CC(C)=CCC/C(C)=C/CC/C(C)=C/CO [Farnesol] |  | strongly promoted replicon replication |  |
| CC(Cc1ccc(C(C)(C)C)cc1)CN1C[C@@H](C)O[C@@H](C)C1 (stereo partly shown) [Fenpropimorph] |  | inhibited HCV replication with marginal impact on host cell ATP levels |  |
| COC(=O)[C@H](CC(C)C)NC(=O)c1ccc(NC[C@@H](N)CS)cc1-c1ccccc1 [GGTI-286] |  | antiviral activity |  |
| CCOP(=O)(OCC)C(=Cc1cc(C(C)(C)C)c(O)c(C(C)(C)C)c1)P(=O)(OCC)OCC [SR-12813] |  | strongly promoted replicon replication |  |
| CCC(C)(C)C(=O)O[C@H]1C[C@@H](C)C=C2C=C[C@H](C)[C@H](CC[C@@H]3C[C@@H](O)CC(=O)O3)[C@H]21 [Simvastatin] | correlate with a reduction in host cell ATP levels | proviral effect; also recorded: increased HCV replication | replicon RNA copy number, RT-qPCR (in words) [2]: proviral effects; HMGCR protein expression (in words) (HMGCR): apparent overexpression of HMGCR |
| C=C(CC[C@]12O[C@H](C(=O)O)[C@@](O)(C(=O)O)[C@](C(=O)O)(O1)[C@H](OC(=O)/C=C/[C@@H](C)C[C@@H](C)CC)[C@H]2O)[C@@H](OC(C)=O)[C@H](C)Cc1ccccc1 [Squalestatin] |  | strongly promoted replicon replication | replicon RNA copy number, RT-qPCR (in words) [2]: proviral effects; HMGCR protein expression (in words) (HMGCR): overexpression of HMGCR |
| CCCCCCCCCCCCCCOc1ccc(C(=O)O)o1 [TOFA] | modest depletion of ATP at most antiviral concentrations |  |  |
| CC(C)N1CCN(c2ccc(OCC3COC(Cn4cncn4)(c4ccc(Cl)cc4Cl)O3)cc2)CC1 (stereo not shown) [Terconazole] | reduce host cell ATP levels |  |  |
| CCN(CC)CCO[C@H]1CC[C@@]2(C)C(=CC[C@@H]3[C@@H]2CC[C@]2(C)C(=O)CC[C@@H]32)C1.Cl [U18666A] |  | inhibited HCV replication with marginal impact on host cell ATP levels | HMGCR protein expression (in words) (HMGCR): overexpression of HMGCR; IC50 of HCV replication inhibition (in words) ([1]; 48 h): nM range; side effects [3]: rapid induction of cataracts and irreversible lens damage in animals |
| CC(C)n1c(/C=C/C(O)CC(O)CC(=O)O)c(-c2ccc(F)cc2)c2ccccc21 (stereo not shown) [fluvastatin] |  | proviral effect |  |
